Laboratory results published in ChEMBL document CHEMBL1201862, “PubChem BioAssay data set” (2004).
Active and inactive are the calls of the source.

Columns and labels:
[1] = IC50 of Artemis nuclease activity blockers – biochemical, fluorescence intensity, dose response (AID 720701); type: functional;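 note: Artemis endonuclease enzyme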
Cryptococcus neoformans = test: PubChem AID 686997; type: functional, organism-based
[2] = HEK293 Cytotoxicity Assay Measured in Cell-Based System Using Plate Reader - 7071-01_Inhibitor_Dose_CherryPick_Activity_Set2.; type: functional
HEK293 = test: viability loss in HEK293T cells – cell-based, ATP luminescence, cherry-pick samples, cytotoxicity control, dose response (AID 687005); type: functional; conditions: Homo sapiens;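 note: cells exposed to compound for 48 hours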
[3] = biological target: T1, Oxysterols receptor LXR-beta (Homo sapiens, UniProt P55055); test: LXR agonists, Gal4 luciferase reporter, dose response, counter-screen for ssDAF-12 agonist project, cell-based, luminescence, HEK293, S. stercoralis campaign (AID 720737); type: functional; conditions: read-out: IC50 (the source's name)
T1 sequence (P55055 whole entry): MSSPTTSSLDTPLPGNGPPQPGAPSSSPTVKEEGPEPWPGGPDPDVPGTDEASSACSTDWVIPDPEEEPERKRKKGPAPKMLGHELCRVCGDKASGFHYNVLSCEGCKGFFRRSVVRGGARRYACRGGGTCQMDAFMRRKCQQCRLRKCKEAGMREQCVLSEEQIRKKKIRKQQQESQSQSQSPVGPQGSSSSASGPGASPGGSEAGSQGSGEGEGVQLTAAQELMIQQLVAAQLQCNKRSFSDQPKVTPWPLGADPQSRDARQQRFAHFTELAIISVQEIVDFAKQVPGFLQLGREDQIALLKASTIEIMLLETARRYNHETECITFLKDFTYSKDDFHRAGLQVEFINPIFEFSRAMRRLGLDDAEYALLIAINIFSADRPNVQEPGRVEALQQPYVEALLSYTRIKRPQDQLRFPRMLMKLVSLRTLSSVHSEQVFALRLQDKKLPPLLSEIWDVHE

[4] = Luminescence-based cell-based high throughput dose response assay to identify activators of the DAF-12 from the parasite S. stercoralis (ssDAF-12).; type: functional
[5] = biological target: T1, Oxysterols receptor LXR-beta; type: functional, cell-based
[6] = ATP-based viability loss in HepG2 cells – cell-based, CellTiter-Glo luminescence, dry powder, set 3, cytotoxicity control, dose response (AID 720594); type: functional
[7] = dual-tagged ARNT PAS-B bead signal quenchers – biochemical, dry powder, artefact control for ARNT/TACC3 disruptor project, dose response (AID 720564)
[8] = ATP-based viability loss in HEK293T cells – cell-based, CellTiter-Glo luminescence, dry powder, set 2, cytotoxicity control, dose response (AID 720595); type: functional; conditions: HEK293
[9] = A549 lung cell viability reduction – CellTiter-Glo luminescence, cherry-pick, cytotoxicity control, dose response (AID 743484); type: functional, cell-based
[10] = HepG2 viability loss by ATP level – cell-based, CellTiter-Glo luminescence, cherry-pick, set 4, cytotoxicity control, dose response (AID 743480); type: functional
[11] = M. tuberculosis H37Rv growth inhibitors, H37Rv strain (AID 1626); type: functional
[12] = OVCAR8 cell viability loss – plate reader, dry powder samples, PAX8 project, dose response (AID 743197); type: functional, cell-based; conditions: OVCAR-8
Paired box protein Pax-8 = Paired box protein Pax-8 (Homo sapiens, UniProt Q06710); test: PAX8 transcriptional activity inhibition in RMG-I – RMG-I cells, luciferase, cherry-pick, dose response (AID 687027); type: functional, cell-based;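 note: luciferase reporter driven by Pax8 target thyroperoxidase promoter measured by SteadyGlo luminescence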
[13] = OVCAR-3 cell viability loss – plate reader, dry powder samples, PAX8 inhibitor project, dose response (AID 743044); type: functional, cell-based
[14] = IGROV1 cell killing – plate reader, dry powder samples, PAX8 inhibitor project, dose response (AID 743043); type: functional, cell-based; conditions: IGROV-1
[15] = toxicity toward immortalized ovarian surface epithelium – cell-based, plate reader, dry powder samples, cytotoxicity control for PAX8 inhibitor project, dose response (AID 743045); type: functional
Heat shock protein HSP90 = Heat shock protein HSP90 (Homo sapiens, UniProt P07900+P08238); test: Hsp90 blockade concentration-response – dose response (AID 712); type: functional
NADPH oxidase 1 = biological target: T2, NADPH oxidase 1 (Homo sapiens, UniProt Q9Y5S8); test: Late-stage luminescence-based cell-based dose response assay to identify inhibitors of NADPH oxidase 1 (NOX1): Synthesized analogs.; type: functional
T2 sequence (Q9Y5S8 whole entry): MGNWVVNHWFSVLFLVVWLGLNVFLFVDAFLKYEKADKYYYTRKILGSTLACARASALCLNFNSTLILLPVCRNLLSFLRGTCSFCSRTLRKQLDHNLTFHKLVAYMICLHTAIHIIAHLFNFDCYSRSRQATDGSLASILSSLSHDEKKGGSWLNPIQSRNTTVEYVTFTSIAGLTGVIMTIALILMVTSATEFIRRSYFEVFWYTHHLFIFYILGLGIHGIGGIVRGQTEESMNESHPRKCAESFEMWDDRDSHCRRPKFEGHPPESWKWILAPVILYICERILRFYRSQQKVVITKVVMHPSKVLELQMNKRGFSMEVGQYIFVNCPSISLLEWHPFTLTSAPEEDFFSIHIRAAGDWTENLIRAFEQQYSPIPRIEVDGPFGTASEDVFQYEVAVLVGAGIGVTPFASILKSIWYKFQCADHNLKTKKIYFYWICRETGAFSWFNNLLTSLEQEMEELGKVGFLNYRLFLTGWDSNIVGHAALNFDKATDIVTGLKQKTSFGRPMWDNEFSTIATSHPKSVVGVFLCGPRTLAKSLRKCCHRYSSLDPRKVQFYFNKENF

[16] = Shn3 3'UTR reporter signal decrease – cell-based, Clone20 osteoblasts, firefly luciferase, cherry-pick, set 2, Schnurri-3 inhibitor project, dose response (AID 720490); type: functional;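 note: actives lower the luminescence signal as inhibitors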
[17] = loss of viability in HepG2 cells – cell-based, CellTiter-Glo, cherry-picked, cytotoxicity control for Shn3 inhibitor project, dose response (AID 624134); type: functional
[18] = reduction of Shn3 3'UTR-driven luciferase in osteoblasts – cell-based, Clone20 osteoblasts, firefly luciferase, cherry-picked, dose response (AID 624132); type: functional;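 note: firefly luciferase luminescence from reporter carrying the Shn3 3'UTR in osteoblasts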
[19] = non-specific 3'UTR reporter inhibition in Clone20-Shn3RL – cell-based, Renilla luciferase, cherry-picked, counter-screen for Shn3 inhibitor project, dose response (AID 624133); type: functional
[20] = viability loss in THP-1 monocytes – THP-1 cells, cytotoxicity control for Vif-APOBEC3G degradation inhibitor project, dose response (AID 1117359); type: functional; conditions: THP-1
[21] = Late stage assay provider results from the probe development effort to identify inhibitors of the Plasmodium falciparum M18 Aspartyl Aminopeptidase (M18AAP): radiolabel-based cell-based dose response assay to identify compounds that inhibit P. falciparum growth in RBCs, Set 2..; type: functional
Transthyretin = Transthyretin (Homo sapiens, UniProt P02766); test: Luminescence-based cell-based high throughput dose response assay to identify activators of Transthyretin (TTR) transcription.; type: functional

Paired box protein Pax-8, sequence (Q06710 whole entry): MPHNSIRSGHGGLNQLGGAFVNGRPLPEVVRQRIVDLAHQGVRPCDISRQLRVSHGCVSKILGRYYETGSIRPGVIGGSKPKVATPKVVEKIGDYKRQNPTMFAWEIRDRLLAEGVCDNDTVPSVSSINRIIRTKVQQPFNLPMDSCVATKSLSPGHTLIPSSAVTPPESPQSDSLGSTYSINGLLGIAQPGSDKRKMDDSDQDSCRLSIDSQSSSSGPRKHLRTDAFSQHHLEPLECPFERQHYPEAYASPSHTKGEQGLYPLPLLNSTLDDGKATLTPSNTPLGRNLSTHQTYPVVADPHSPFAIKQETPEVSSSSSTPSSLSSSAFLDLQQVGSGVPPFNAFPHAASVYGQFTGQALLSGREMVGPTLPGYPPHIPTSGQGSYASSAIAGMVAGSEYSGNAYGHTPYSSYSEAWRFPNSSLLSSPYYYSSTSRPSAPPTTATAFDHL

For `CCCCn1/c(=N/C(=O)c2ccc3c(c2)OCO3)c(C#N)cc2c(=O)n3cccc(C)c3nc21`, the IC50 [1] was > 20 µM (inactive).

In the case of `COC(=O)C1=C(C)N(CC(C)C)C(=S)NC1c1ccc(F)cc1` (stereo not drawn), the AC50 (Cryptococcus neoformans) was > 84 µM (inactive), the AC50 [2] was 40.3 µM (active) and the AC50 (HEK293) was 40.3 µM (active).

With `O=[N+]([O-])c1ccc2oc(-c3cccc(O)c3)nc2c1` the EC50 [3] was > 67.5 µM (inactive), the EC50 (cells) was > 67.6 µM (inactive) and the IC50 [4] was > 67.5 µM (inactive). For the same compound, the EC50 [5] was > 67.6 µM (inactive).

In the case of `CC1CCN(S(=O)(=O)c2ccc(C(=O)Nc3nnc(-c4ccccc4)o3)cc2)CC1`, the AC50 [6] was > 52 µM (inactive), the AC50 [7] was 86.8 µM (active) and the AC50 [8] was 2.57 µM (active).

With `COc1ccc(NC(=O)c2ccc(-c3ccc([N+](=O)[O-])cc3)o2)cc1` the AC50 [9] was > 52 µM (inactive), the AC50 [10] was > 52 µM (inactive) and the IC50 [11] was > 100 µM (active).

In the case of `Cc1ccc(S(=O)(=O)Nc2ccc3c(c2)C(=O)N([C@H](C)CO)C[C@@H](C)[C@@H](CN(C)Cc2ccc(C(F)(F)F)cc2)OCCCC[C@@H](C)O3)cc1`, the AC50 [12] was 39.6 µM (active), the AC50 (Paired box protein Pax-8) was 5.57 µM (active) and the AC50 [13] was 36 µM (active). For the same compound, the AC50 [14] was 54.4 µM (active) and the AC50 [15] was 53.7 µM (active).

Work on `Cc1cccc(NC(=O)c2c(O)c3cccc4c3n(c2=O)CCC4)n1` yielded an IC50 (Heat shock protein HSP90) of over 50 µM.

In the case of `COC(=O)Nc1ccc2c(c1)N(C(=O)CCCl)c1ccccc1S2`, the IC50 (NADPH oxidase 1) was > 50 µM (not active).

For `Cc1ccc(CNC(=O)c2cc3c(C)nc4ccccc4c3o2)cc1`, the AC50 [16] was 4.02 µM (active), the AC50 [17] was 64.3 µM (active) and the AC50 [18] was 2.49 µM (active). For the same compound, the AC50 [19] was 12.2 µM (active).

For `CCC(C)(c1nnnn1-c1c(C)cccc1C)N(N=O)c1ccccc1Cl` (stereo not drawn), the CC50 [20] was > 40 µM (active).

With `COc1ccc(CNc2c3ccccc3nc3ccccc23)cc1OC` the IC50 [21] was 1.05 µM (active).

In the case of `Cc1cc(C(=O)N2CCc3ccccc32)n(-c2ccccc2)n1`, the EC50 (Transthyretin) was > 167 µM (inactive).
